US11858919B2, “HDAC1,2 inhibitors” (REGENACY PHARMACEUTICALS, LLC, priority 2018, dated 2024)
Where two headings read alike, the source gives them in different places.

What was measured:
HDAC2 = target: T1, HDAC2 (Homo sapiens, UniProt Q92769); assay: HDAC enzyme assay, HDAC2 (fluorescence, tripeptide substrate/trypsin); assay type: biochemical; details: 0.2 ng/ml enzyme, 10 μM substrate, 10 min preincubation
T1 construct: purchased BPS Biosciences
Procedure: (§1) Compounds for testing were diluted in […] to 50 fold the final concentration and a ten-point three-fold dilution series was made. The compounds were diluted in assay buffer (50 mM HEPES, pH 7.4, 100 mM KCl, 0.001% Tween-20, 0.05% BSA, 20 μM TCEP) to 6-fold their final concentration. The HDAC enzymes (purchased from BPS Biosciences) were diluted to 1.5-fold their final concentration in assay buffer. The tripeptide substrate and trypsin at 0.05 μM final concentration were diluted in assay buffer at 6-fold their final concentration. The final enzyme concentrations used in these assays were 3.3 ng/ml (HDAC1), 0.2 ng/ml (HDAC2) and 0.08 ng/ml (HDAC3). The final substrate concentrations used were 16 μM (HDAC1), 10 μM (HDAC2) and 17 μM (HDAC3).
(§2) Five μl of compounds and 20 μl of enzyme were added to wells of a black, opaque 384 well plate in duplicate. Enzyme and compound were incubated together at room temperature for 10 minutes. Five μl of substrate was added to each well, the plate was shaken for 60 seconds and placed into a Victor 2 microtiter plate reader. The development of fluorescence was monitored for 60 min and the linear rate of the reaction was calculated. The IC50 was determined using Graph Pad Prism by a four parameter curve fit.

HDAC1 = target: T2, HDAC1 (Homo sapiens, UniProt Q13547); assay: HDAC enzyme assay, HDAC1 (fluorescence, tripeptide substrate/trypsin); assay type: biochemical; details: 3.3 ng/ml enzyme, 16 μM substrate, 10 min preincubation
T2 construct: purchased BPS Biosciences
Procedure: as §1, §2

HDAC3 = target: T3, HDAC3 (Homo sapiens, UniProt O15379); assay: HDAC enzyme assay, HDAC3 (fluorescence, tripeptide substrate/trypsin); assay type: biochemical; details: 0.08 ng/ml enzyme, 17 μM substrate, 10 min preincubation
T3 construct: purchased BPS Biosciences
Procedure: as §1, §2

[1] = Pharmacokinetics in male SD rats (cassette dosing, IV and PO), plasma level by LC/MS/MS; assay type: in vivo; details: male SD rat; for bioavailability: dose adjusted PO AUC (5 mg/kg) to IV AUC (1 mg/kg), read-out: F % (oral bioavailability)
Procedure: Male SD rats were fasted overnight. Compounds of the invention were dissolved in dimethyl acetamide at 10 times the final concentration, then Solutol HS 15 (BASF) was added to a final concentration of 10%. Finally, 80% saline was added and vortexed to achieve a clear solution. For the IV dosing three animals were injected via the foot dorsal vein with 1 mg/kg compound. For the PO dosing 5 mg/kg of compound was delivered by oral gavage. Blood was collected via the tail vein into K2EDTA tubes at 5 minutes, 15 minutes, 30 minutes, 1 hour, 2 hours, 4 hours, 8 hours and 24 hours after dosing. The blood was centrifuged at 2000 g for 5 minutes at 4° C. to obtain plasma. The plasma was extracted with acetonitrile and the level of compound was analyzed by LC/MS/MS. The level of compound in plasma was calculated from a standard curve in rat plasma. The IV clearance (L/h/kg) and area under the curve (h*ng/mL) were calculated using WinNonLin software. The dose adjusted area under the curve for the IV and oral dosing were used to calculate the oral bioavailability.
Pharmacokinetic properties were assessed in a rat cassette dosing experiment. The IV clearance (IV Clr.) is in units of L/hr/kg. The oral maximum plasma concentration (PO Cmax) is in units of ng/ml. The oral plasma half-life (PO T½) is in units of hours. The oral area under the curve (PO AUC) is in units of hours*ng/ml. The fraction absorbed by the oral route (F %) is a percentage of the oral area under the curve to the IV area under the curve, dose adjusted.

[2] = PO 5 mg/kg oral gavage, read-out: PO AUC
[3] = PO 5 mg/kg oral gavage, read-out: PO t1/2

T3 sequence (O15379 whole entry): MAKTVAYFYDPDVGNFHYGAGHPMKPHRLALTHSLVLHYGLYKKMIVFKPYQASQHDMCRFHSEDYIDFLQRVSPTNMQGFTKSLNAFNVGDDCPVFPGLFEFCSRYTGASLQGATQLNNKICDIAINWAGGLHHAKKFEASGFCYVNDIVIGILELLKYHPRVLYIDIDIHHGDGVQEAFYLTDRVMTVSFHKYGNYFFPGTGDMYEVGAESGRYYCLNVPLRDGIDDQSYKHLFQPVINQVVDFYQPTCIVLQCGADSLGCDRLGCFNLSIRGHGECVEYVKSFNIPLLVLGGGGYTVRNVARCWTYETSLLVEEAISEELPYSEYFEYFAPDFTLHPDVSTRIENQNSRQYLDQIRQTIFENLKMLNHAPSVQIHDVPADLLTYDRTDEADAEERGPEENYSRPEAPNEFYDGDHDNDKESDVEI
T3 sequence (Q9Y618 395-489 partner limits assumed): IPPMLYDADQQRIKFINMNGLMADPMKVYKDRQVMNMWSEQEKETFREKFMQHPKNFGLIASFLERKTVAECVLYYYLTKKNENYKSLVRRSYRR
T2 sequence (Q13547 whole entry): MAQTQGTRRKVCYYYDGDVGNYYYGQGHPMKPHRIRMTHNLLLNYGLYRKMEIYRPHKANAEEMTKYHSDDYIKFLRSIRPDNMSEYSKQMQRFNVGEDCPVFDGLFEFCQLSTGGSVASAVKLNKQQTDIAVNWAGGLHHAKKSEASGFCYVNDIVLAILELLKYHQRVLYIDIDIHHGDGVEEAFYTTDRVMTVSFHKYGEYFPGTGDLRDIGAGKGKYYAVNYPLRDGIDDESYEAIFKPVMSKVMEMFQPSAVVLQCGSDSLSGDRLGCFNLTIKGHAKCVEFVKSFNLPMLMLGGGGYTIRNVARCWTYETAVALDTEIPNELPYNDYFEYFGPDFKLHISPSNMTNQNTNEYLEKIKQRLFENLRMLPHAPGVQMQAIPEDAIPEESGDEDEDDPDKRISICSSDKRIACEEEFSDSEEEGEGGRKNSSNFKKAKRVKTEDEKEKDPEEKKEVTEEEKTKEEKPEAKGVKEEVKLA
T1 sequence (Q92769 whole entry): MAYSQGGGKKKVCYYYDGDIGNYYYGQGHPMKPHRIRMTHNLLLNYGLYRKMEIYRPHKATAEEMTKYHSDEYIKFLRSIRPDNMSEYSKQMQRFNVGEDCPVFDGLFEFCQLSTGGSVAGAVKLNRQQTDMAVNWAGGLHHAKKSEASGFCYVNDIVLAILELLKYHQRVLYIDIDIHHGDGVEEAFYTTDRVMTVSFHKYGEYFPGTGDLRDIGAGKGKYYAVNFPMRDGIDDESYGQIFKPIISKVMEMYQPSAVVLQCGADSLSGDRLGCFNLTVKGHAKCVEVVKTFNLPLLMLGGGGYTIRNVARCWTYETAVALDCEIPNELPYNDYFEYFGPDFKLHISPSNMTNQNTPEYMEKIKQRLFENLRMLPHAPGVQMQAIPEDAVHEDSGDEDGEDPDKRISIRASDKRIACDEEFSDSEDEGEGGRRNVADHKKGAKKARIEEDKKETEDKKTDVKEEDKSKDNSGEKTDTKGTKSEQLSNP

Compound | IC50 (HDAC2) [nM] | IC50 (HDAC1) [nM] | IC50 (HDAC3) [nM] | AUC ([1]; IV 1 mg/kg, read-out: IV AUC) [ng·h/mL] | Cmax ([1]; PO 5 mg/kg oral gavage) [ng/mL] | AUC [1, 2] [ng·h/mL] | bioavailability [1] [%] | IV clearance ([1]; IV 1 mg/kg) [mL/min/kg] | half-life ([1]; IV 1 mg/kg, read-out: IV t1/2) [h] | half-life [1, 3] [h]
CN1C(=O)Cc2cc(C(=O)Nc3cc(-c4cccs4)ccc3N)ccc21 [Compound 001] | 10 to 15 | 5 to 10 | 340 to 350 | 40000 to 40200 | 6950 to 7000 | 140000 | 65 to 75 | – | – | –
Nc1ccc(-c2ccccc2)cc1NC(=O)c1ccc2c(c1)CC(=O)N2CC1CC1 [Compound 002] | 45 to 50 | 20 to 25 | 925 to 935 | 6500 to 6600 | 2450 to 2500 | 22400 | 65 to 75 | 0.167 to 8.33 | 1 to 5 | 5 to 10
Nc1ccc(-c2cccs2)cc1NC(=O)c1ccc2c(c1)CC(=O)N2CCN1CCOCC1 [Compound 003] | 5 to 25 | 1 to 10 | 145 to 590 | 1800 to 1900 | 950 to 1000 | 11400 to 11600 | 130 to 140 | 1.67 to 16.7 | 5 to 10 | 5 to 10
Nc1ccc(-c2cccs2)cc1NC(=O)c1ccc2c(c1)CC(=O)N2 [Compound 004] | 25 to 30 | 5 to 10 | 530 to 540 | 10600 to 10800 | 3500 to 3550 | 61200 to 61400 | 110 to 115 | 0.167 to 8.33 | 15 to 20 | 10 to 15
Nc1ccc(-c2cccs2)cc1NC(=O)c1ccc2c(c1)CC(=O)N2CCN1CCCCC1 [Compound 006] | 70 to 75 | 10 to 15 | 1130 to 1140 | – | – | – | – | – | – | –
CN1C(=O)Cc2cc(C(=O)Nc3cc(-c4ccc(O)cc4)ccc3N)ccc21 [Compound 007] | 60 to 65 | 25 to 30 | 2740 to 2750 | – | – | – | – | – | – | –
Nc1ccc(-c2ccccc2)cc1NC(=O)c1ccc2ncn(CCN3CCOCC3)c2c1 [Compound 008] | > 2000 | 625 to 650 | > 2000 | – | – | – | – | – | – | –
Nc1ccc(-c2cccs2)cc1NC(=O)c1ccc2[nH]c(C3CC3)nc2c1 [Compound 009] | 40 to 45 | 10 to 15 | 470 to 480 | 10800 | 4150 to 4200 | 65200 to 65400 | 115 to 125 | 0.167 to 8.33 | 15 to 20 | 10 to 15
Cn1cnc2ccc(C(=O)Nc3cc(-c4cccs4)ccc3N)cc21 [Compound 010] | 210 to 220 | 375 to 380 | 985 to 995 | – | – | – | – | – | – | –
Nc1ccc(-c2cccs2)cc1NC(=O)c1ccc2c(c1)CC(=O)N2CC1CC1 [Compound 011] | 35 to 40 | 10 to 15 | 490 to 500 | 2000 to 2100 | 700 to 750 | 8000 to 8100 | 80 to 90 | 1.67 to 16.7 | 5 to 10 | 5 to 10
CN1C(=O)Cc2cc(C(=O)Nc3cc(-c4ccccc4)ccc3N)ccc21 [Compound 012] | 20 to 30 | 25 to 35 | 875 to 885 | 29800 to 30000 | 8200 to 8250 | 9450 to 9550 | 60 to 70 | 0.167 to 8.33 | 5 to 10 | 15 to 20
Nc1ccc(-c2ccccc2)cc1NC(=O)c1ccc2c(c1)CC(=O)N2CCN1CCOCC1 [Compound 013] | 70 to 80 | 25 to 35 | 1040 to 1050 | 2700 to 2800 | 1900 to 1950 | 11800 | 80 to 90 | 1.67 to 16.7 | 1 to 5 | 1 to 5
CN1C(=O)C(C)(C)c2cc(C(=O)Nc3cc(-c4cccs4)ccc3N)ccc21 [Compound 014] | 2140 to 2150 | 4180 to 4200 | 3370 to 3380 | – | – | – | – | – | – | –
CN1C(=O)Cc2cc(C(=O)Nc3cc(-c4ccco4)ccc3N)ccc21 [Compound 015] | 30 to 40 | 15 to 25 | 640 to 650 | – | – | – | – | – | – | –
Nc1ccc(-c2cccs2)cc1NC(=O)c1ccc2c(c1)CC(=O)N2CCCN1CCOCC1 [Compound 016] | 5 to 15 | 1 to 10 | 710 to 720 | – | – | – | – | – | – | –
Nc1ccc(-c2ccccc2)cc1NC(=O)c1ccc2c(c1)ncn2CCN1CCOCC1 [Compound 017] | 10 to 20 | 1 to 10 | 450 to 460 | – | – | – | – | – | – | –
Nc1ccc(-c2cccs2)cc1NC(=O)c1ccc2[nH]cnc2c1 [Compound 018] | 20 to 35 | 1 to 10 | 150 to 235 | 19600 to 19800 | 5550 to 5600 | 81800 to 82000 | 75 to 85 | 0.167 to 8.33 | 10 to 15 | 5 to 10
Cn1cnc2cc(C(=O)Nc3cc(-c4cccs4)ccc3N)ccc21 [Compound 019] | 35 to 40 | 15 to 20 | 690 to 700 | – | – | – | – | – | – | –
Cc1nc2ccc(C(=O)Nc3cc(-c4cccs4)ccc3N)cc2[nH]1 [Compound 020] | 25 to 30 | 5 to 10 | 1300 to 1310 | – | – | – | – | – | – | –
Nc1ccc(-c2cccs2)cc1NC(=O)c1ccc2c(c1)ncn2CCN1CCOCC1 [Compound 021] | 15 to 20 | 5 to 10 | 430 to 440 | 3700 to 3800 | 5250 to 5300 | 21400 | 110 to 120 | 1.67 to 16.7 | 1 to 5 | 1 to 5
Nc1ccc(-c2cccs2)cc1NC(=O)c1ccc2ncn(CCN3CCOCC3)c2c1 [Compound 022] | 1240 to 1250 | 885 to 895 | 1210 to 1220 | – | – | – | – | – | – | –
CNCCCOc1ccc2cc(C(=O)Nc3cc(-c4cccs4)ccc3N)cnc2c1 [Compound 026] | 20 to 25 | 25 to 30 | 85 to 95 | – | – | – | – | – | – | –
CN1CCN(c2ccc3cc(C(=O)Nc4cc(-c5nccn5C)ccc4N)cnc3c2)CC1 [Compound 027] | > 2000 | > 2000 | > 2000 | – | – | – | – | – | – | –
Nc1ccc(-c2cccs2)cc1NC(=O)c1ccc2nc(N3CCNCC3)ccc2c1 [Compound 028] | 50 to 60 | 50 to 60 | 290 to 300 | – | – | – | – | – | – | –
